Laboratory results as given in patent US20070292906A1, “ASSAY FOR MEASURING ACYLTRANSFERASE ACTIVITY” (Bristol-Myers Squibb Company, priority 2006, published 2007).

Assays:
human DGAT1 = target: T1, human DGAT1 (Homo sapiens, UniProt O75907); experiment: substrate concentration titration in TLC assay, DGAT1; assay type: biochemical; conditions: Michaelis Menton fit, duplicate
T1 construct: made in house; host or cells: Sf9 insect cells (baculovirus), used as membrane extracts
T1 sequence (O75907 1-488): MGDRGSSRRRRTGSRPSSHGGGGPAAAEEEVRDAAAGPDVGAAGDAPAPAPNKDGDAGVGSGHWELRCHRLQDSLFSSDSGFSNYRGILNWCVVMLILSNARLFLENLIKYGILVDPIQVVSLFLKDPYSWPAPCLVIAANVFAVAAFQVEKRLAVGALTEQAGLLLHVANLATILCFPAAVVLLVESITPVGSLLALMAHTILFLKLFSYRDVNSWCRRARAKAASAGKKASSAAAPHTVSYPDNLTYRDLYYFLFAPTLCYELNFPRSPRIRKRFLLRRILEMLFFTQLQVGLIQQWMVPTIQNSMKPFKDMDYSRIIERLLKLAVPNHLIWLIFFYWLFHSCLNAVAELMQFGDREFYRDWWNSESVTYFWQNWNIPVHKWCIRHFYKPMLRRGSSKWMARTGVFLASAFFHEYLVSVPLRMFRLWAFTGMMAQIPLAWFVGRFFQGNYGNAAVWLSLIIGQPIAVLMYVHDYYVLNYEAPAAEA
Procedure: (§1) The data shown in FIG. 1B correspond to a TLC plate assay and various substrates that could be used in the assay. Aliquots of membrane extracts (30 μg) derived from either wild type baculovirus infected Sf9 cells (WT) (lanes 4,5) infected with recombinant human DGAT1 baculovirus (DGAT1) (lanes 6-8), or with recombinant human MGAT3 baculovirus (MGAT3) (lanes 1-3), were subjected to enzyme reactions in Buffer A (150 mM potassium phosphate buffer, pH 7.4) with 50 μM [^14C]oleoyl-CoA (40,000 d.p.m./nmol specific activity) as the acyl donor, and 100 μM 1,2-dioleoylglycerol (DOG), or 2-monooleoylglycerol (2-MOG) as the acyl acceptor (delivered by acetone, final vehicle concentration at 2%).
(§2) Assays were carried out for 10 minutes as described in (Cheng et al., Biochem J. 2001 Nov. 1;359 (Pt 3):707-14.). The products were resolved by TLC in a solvent comprising hexane: ether: acetic acid in a ration of 170:30:1, respectively. The products were visualized by a Phosphoimage exposure. […]
(§3) Briefly, substrate efficiency was determined from results obtained using a TLC acyltransferase assay. […] The enzymatic products were quantified and the kinetic parameters Vmax and Km were derived using the Michaelis Menton Equation as applied by Prism® software. […]

human MGAT3 = target: T2, human MGAT3 (Homo sapiens, UniProt Q86VF5); experiment: substrate concentration titration in TLC assay, MGAT3; assay type: biochemical; conditions: Michaelis Menton fit, duplicate
T2 construct: made in house; host or cells: Sf9 insect cells (baculovirus), used as membrane extracts
T2 sequence (Q86VF5 1-341): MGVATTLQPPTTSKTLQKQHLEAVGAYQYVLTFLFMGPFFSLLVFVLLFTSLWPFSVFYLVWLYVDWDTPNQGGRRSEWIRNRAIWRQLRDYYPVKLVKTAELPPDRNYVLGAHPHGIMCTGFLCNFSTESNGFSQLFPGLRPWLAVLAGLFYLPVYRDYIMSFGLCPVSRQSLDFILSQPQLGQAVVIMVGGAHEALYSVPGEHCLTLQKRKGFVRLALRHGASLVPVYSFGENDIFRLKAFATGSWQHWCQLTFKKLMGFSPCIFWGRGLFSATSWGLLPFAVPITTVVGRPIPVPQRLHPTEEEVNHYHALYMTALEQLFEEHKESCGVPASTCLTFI
Procedure: as §1, §2, §3

`CCCCCCCC/C=C\CCCCCCCC(=O)OC(CO)CO` [MOG, 2-monooleoylglycerol] was tested, and the “Km with MOG relative to 1,2-sn-dioleoylglycerol” value (human DGAT1) was “significantly reduced”, the “Vmax with MOG relative to 1,2-sn-dioleoylglycerol” value (human DGAT1) was “more than 20 fold” and the “Km with MOG relative to 1,2-sn-dioleoylglycerol” value (human MGAT3) was “significantly reduced”. The “Vmax with MOG relative to 1,2-sn-dioleoylglycerol” value (human MGAT3) was “more than 50 fold”.
